How the values were obtained:
Experiment in all cases: radiometric filter-binding kinase assay, Kinase HotSpot
Details in all cases: compound 0.5 µM; ATP 10 µM
[1] = target: CSF1R (human) (UniProt P07333)
[2] = target: PKN1 (human) (UniProt Q16512)
[3] = target: GSK3A (human) (UniProt P49840)
[4] = target: AKT3 (human) (UniProt Q9Y243)
[5] = target: CDK7 CCNH MNAT1 (human) (UniProt P50613+P51948+P51946)
[6] = target: AKT2 (human) (UniProt P31751)
[7] = target: MINK1 (human) (UniProt Q8N4C8)
[8] = target: MAPK8 (human) (UniProt P45983)
[9] = target: PLK2 (human) (UniProt Q9NYY3)
[10] = target: MAP3K3 (human) (UniProt Q99759)
[11] = target: RPS6KB1 (human) (UniProt P23443)
RPS6KB1 (human), sequence (P23443 whole entry, looked up): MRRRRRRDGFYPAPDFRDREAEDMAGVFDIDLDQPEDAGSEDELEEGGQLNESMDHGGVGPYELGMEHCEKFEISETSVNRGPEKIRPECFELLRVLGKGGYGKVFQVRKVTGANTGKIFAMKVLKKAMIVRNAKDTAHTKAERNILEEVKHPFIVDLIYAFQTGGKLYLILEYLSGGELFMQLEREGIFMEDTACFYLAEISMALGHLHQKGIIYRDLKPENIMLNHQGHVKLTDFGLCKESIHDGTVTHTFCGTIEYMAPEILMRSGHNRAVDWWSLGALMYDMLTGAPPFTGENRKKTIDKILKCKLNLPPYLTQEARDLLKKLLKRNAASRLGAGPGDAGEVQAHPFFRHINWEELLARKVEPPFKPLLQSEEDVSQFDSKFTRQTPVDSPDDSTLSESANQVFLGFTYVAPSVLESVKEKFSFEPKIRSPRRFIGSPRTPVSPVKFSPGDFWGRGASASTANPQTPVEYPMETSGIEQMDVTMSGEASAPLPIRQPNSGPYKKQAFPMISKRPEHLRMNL

[12] = target: MET (human) (UniProt P08581)
[13] = target: CDK5 CDK5R1 p25 (human) (UniProt Q00535+Q15078)
[14] = target: NLK (human) (UniProt Q9UBE8)
[15] = target: MUSK (human) (UniProt O15146)
MUSK (human), sequence (O15146 whole entry, looked up): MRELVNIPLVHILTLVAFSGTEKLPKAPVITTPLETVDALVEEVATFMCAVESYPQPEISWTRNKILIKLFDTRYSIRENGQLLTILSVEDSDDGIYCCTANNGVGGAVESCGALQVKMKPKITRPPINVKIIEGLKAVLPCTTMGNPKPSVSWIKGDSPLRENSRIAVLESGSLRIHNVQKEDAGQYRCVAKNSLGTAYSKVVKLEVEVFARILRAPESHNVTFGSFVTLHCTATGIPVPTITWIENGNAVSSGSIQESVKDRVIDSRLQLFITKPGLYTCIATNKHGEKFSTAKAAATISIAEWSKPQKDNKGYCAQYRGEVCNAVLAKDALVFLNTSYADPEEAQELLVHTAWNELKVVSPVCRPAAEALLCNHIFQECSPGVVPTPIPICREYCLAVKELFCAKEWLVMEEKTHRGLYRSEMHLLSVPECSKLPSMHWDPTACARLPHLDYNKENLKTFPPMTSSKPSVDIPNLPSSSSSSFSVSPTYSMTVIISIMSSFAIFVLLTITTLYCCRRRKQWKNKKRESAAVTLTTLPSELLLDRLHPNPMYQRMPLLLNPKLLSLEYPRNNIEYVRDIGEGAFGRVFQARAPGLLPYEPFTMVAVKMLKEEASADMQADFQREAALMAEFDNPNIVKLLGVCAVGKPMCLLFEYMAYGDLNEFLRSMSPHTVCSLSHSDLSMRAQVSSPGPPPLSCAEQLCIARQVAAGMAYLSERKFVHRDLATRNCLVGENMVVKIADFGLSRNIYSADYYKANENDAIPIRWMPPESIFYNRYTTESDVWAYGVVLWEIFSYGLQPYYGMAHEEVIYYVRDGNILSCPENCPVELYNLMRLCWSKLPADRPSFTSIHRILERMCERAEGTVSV

[16] = target: CDK3 CCNE1 (human) (UniProt Q00526+P24864)
[17] = target: MAP3K10 (human) (UniProt Q02779)
[18] = target: EPHB3 (human) (UniProt P54753)
[19] = target: ROS1 (human) (UniProt P08922)
[20] = target: SRPK1 (human) (UniProt Q96SB4)
[21] = target: NUAK1 (human) (UniProt O60285)
[22] = target: FGFR3 (human) (UniProt P22607)
[23] = target: MAP3K11 (human) (UniProt Q16584)
[24] = target: GRK7 (human) (UniProt Q8WTQ7)
[25] = target: MARK2 (human) (UniProt Q7KZI7)
[26] = target: RPS6KA6 KD1 KD2 (human) (UniProt Q9UK32)
[27] = target: NEK6 (human) (UniProt Q9HC98)
[28] = target: HIPK2 (human) (UniProt Q9H2X6)
HIPK2 (human), sequence (Q9H2X6 whole entry, looked up): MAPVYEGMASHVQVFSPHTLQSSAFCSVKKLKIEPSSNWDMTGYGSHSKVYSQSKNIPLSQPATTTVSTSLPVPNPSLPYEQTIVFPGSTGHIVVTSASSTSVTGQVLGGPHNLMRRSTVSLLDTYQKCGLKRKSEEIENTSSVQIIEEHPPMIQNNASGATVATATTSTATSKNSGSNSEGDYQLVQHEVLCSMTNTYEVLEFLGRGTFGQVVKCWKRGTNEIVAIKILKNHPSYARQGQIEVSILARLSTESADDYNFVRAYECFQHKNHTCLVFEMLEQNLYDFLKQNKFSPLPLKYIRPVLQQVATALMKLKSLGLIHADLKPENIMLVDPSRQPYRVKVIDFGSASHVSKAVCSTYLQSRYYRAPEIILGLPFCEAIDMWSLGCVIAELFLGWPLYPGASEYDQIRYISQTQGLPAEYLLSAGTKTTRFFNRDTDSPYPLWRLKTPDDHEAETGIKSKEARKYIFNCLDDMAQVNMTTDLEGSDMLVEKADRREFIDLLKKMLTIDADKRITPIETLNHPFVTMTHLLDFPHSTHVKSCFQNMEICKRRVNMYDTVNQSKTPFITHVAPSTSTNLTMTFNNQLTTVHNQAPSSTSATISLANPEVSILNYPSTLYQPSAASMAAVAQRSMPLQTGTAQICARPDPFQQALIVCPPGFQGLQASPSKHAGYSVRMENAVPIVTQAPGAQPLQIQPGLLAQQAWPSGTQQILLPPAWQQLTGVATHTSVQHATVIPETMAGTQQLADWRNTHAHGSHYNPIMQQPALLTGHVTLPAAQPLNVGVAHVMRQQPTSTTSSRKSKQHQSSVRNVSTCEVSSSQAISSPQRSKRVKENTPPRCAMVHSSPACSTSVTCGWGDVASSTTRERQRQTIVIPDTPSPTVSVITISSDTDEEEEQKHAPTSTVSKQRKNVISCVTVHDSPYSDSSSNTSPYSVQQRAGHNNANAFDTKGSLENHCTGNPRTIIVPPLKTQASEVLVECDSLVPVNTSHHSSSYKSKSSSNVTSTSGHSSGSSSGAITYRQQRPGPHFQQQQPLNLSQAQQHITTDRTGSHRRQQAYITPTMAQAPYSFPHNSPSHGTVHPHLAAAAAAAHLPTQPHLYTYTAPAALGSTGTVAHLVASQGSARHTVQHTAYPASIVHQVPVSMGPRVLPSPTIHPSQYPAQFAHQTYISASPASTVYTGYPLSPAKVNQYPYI

[29] = target: PRKG2 (human) (UniProt Q13237)
[30] = target: ROCK2 (human) (UniProt O75116)
[31] = target: MAP4K5 (human) (UniProt Q9Y4K4)
[32] = target: EPHA5 (human) (UniProt P54756)
[33] = target: TEC (human) (UniProt P42680)
TEC (human), sequence (P42680 whole entry, looked up): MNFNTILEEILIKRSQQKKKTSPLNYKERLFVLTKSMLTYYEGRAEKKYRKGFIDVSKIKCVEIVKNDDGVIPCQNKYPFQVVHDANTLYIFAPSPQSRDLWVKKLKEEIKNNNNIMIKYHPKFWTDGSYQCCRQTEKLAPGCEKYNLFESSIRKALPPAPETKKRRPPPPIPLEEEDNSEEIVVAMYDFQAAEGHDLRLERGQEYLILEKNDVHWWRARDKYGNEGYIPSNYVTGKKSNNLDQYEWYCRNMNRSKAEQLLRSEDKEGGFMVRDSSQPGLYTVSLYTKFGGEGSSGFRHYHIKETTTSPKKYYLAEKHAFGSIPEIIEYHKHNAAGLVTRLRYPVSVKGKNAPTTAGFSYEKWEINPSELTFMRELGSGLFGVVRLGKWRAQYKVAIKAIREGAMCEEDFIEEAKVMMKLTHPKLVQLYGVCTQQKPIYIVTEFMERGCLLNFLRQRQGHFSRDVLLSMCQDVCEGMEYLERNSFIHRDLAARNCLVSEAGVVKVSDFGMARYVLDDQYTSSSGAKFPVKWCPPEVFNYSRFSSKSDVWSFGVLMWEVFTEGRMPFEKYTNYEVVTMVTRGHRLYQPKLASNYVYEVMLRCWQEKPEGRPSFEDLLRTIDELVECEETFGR

[34] = target: GRK6 (human) (UniProt P43250)
[35] = target: CAMK1G (human) (UniProt Q96NX5)
[36] = target: TSSK2 (human) (UniProt Q96PF2)
[37] = target: EPHB1 (human) (UniProt P54762)
[38] = target: MAP3K5 (human) (UniProt Q99683)
[39] = target: CDK9 CCNT1 (human) (UniProt P50750+O60563)
CDK9 CCNT1 (human), sequence (O60563 whole entry, looked up): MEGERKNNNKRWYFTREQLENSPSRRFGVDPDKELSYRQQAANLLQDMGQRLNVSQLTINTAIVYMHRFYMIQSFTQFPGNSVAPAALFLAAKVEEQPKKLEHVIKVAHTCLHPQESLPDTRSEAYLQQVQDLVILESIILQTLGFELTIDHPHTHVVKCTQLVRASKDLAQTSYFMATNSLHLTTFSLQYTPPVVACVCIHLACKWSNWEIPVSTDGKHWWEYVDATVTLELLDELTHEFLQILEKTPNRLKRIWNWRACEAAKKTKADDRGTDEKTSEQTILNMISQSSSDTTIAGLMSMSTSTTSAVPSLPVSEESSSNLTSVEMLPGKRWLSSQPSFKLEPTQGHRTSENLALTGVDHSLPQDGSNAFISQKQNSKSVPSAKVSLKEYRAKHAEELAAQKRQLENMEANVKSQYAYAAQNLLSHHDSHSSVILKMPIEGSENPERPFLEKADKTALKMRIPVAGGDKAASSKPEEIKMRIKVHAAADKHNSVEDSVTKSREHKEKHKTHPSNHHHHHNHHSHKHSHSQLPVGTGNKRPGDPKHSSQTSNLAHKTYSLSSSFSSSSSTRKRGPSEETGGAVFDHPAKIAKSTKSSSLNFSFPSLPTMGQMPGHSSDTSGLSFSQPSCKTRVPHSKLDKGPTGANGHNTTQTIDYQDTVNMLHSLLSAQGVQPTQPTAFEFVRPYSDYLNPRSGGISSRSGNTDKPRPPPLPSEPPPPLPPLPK
CDK9 CCNT1 (human), sequence (P50750 whole entry, looked up): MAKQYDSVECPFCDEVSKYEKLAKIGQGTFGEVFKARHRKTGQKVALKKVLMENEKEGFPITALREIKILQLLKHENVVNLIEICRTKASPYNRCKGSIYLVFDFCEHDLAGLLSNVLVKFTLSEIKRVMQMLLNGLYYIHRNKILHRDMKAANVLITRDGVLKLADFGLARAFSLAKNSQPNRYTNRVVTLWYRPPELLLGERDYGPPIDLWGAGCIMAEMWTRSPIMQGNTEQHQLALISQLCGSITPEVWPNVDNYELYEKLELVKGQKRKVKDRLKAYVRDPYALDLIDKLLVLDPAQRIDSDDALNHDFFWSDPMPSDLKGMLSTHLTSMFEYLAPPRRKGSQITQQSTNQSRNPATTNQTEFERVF

[40] = target: RPS6KA2 KD1 KD2 (human) (UniProt Q15349)
RPS6KA2 KD1 KD2 (human), sequence (Q15349 whole entry, looked up): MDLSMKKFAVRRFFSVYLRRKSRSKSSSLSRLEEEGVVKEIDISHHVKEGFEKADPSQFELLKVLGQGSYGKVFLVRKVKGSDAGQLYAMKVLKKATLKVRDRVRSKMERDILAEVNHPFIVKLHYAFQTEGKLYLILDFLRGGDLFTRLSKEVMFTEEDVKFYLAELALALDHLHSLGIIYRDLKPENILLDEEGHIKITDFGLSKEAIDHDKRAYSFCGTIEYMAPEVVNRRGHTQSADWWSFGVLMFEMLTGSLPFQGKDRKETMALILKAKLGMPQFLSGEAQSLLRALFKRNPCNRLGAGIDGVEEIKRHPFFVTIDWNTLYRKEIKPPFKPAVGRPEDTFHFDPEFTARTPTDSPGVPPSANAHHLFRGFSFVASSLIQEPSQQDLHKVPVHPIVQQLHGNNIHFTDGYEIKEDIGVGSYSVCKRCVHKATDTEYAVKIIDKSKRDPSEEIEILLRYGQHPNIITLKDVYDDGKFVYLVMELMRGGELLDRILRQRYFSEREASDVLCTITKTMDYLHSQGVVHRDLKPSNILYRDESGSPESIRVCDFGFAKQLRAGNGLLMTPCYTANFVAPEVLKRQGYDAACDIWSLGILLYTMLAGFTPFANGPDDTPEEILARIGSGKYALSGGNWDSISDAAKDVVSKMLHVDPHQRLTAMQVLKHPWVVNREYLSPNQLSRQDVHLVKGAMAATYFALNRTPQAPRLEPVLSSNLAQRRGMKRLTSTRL

[41] = target: PRKCD (human) (UniProt Q05655)

In the case of `Cc1ccc(NC(=O)c2ccc(CN3CCN(C)CC3)cc2)cc1Nc1nc(-c2cccnc2)cs1`, the residual activity [1] is reported as 8.38%, the residual activity [2] is reported as 99.3% and the residual activity [3] is reported as 101%. It also gave a residual activity [4] of 102%, a residual activity [5] of 110% and a residual activity [6] of 103%. The residual activity [7] was 86.7%, the residual activity [8] was 107% and the residual activity [9] was 97.9%. For the same compound, the residual activity [10] was 108%, the residual activity [11] was 104% and the residual activity [12] was 104%. For the same compound, the residual activity [13] was 104%, the residual activity [14] was 106% and the residual activity [15] was 99%. For the same compound, the residual activity [16] was 90.2%, the residual activity [17] was 102% and the residual activity [18] was 80.9%. For the same compound, the residual activity [19] was 91.5%, the residual activity [20] was 98.9% and the residual activity [21] was 110%. The residual activity [22] was 94.3%, the residual activity [23] was 101% and the residual activity [24] was 104%. For the same compound, the residual activity [25] was 104%, the residual activity [26] was 103% and the residual activity [27] was 91.3%. For the same compound, the residual activity [28] was 90.8%, the residual activity [29] was 95.4% and the residual activity [30] was 95.1%. It also gave a residual activity [31] of 97%, a residual activity [32] of 104% and a residual activity [33] of 83.2%. For the same compound, the residual activity [34] was 104%, the residual activity [35] was 106% and the residual activity [36] was 102%. It also gave a residual activity [37] of 94.9%, a residual activity [38] of 95% and a residual activity [39] of 99.2%. It also gave a residual activity [40] of 99.7% and a residual activity [41] of 97.9%.
Work on `NC(=O)c1ccc(N(C(N)=O)c2c(F)cccc2F)nc1-c1ccc(F)cc1F` yielded a residual activity [1] of 109%, a residual activity [2] of 101% and a residual activity [3] of 98.6%. The residual activity [4] was 86.2%, the residual activity [5] was 102% and the residual activity [6] was 118%. The residual activity [7] was 100%, the residual activity [8] was 100% and the residual activity [9] was 102%. It also gave a residual activity [10] of 118%, a residual activity [11] of 100% and a residual activity [12] of 89.4%. The residual activity [13] was 95.9%, the residual activity [14] was 15.8% and the residual activity [15] was 102%. It also gave a residual activity [16] of 94.7%, a residual activity [17] of 104% and a residual activity [18] of 65.8%. It also gave a residual activity [19] of 95%, a residual activity [20] of 99% and a residual activity [21] of 108%. It also gave a residual activity [22] of 90.2%, a residual activity [23] of 105% and a residual activity [24] of 108%. For the same compound, the residual activity [25] was 131%, the residual activity [26] was 101% and the residual activity [27] was 90.5%. For the same compound, the residual activity [28] was 100%, the residual activity [29] was 98.1% and the residual activity [30] was 97.7%. The residual activity [31] was 98.3%, the residual activity [32] was 105% and the residual activity [33] was 114%. For the same compound, the residual activity [34] was 97.1%, the residual activity [35] was 108% and the residual activity [36] was 88.6%. The residual activity [37] was 100%, the residual activity [38] was 102% and the residual activity [39] was 96.7%. The residual activity [40] was 97.5% and the residual activity [41] was 104%.
`CC(C)[C@H](CO)Nc1nc(Nc2cccc(Cl)c2)c2ncn(C(C)C)c2n1` showed a residual activity [1] of 96.9%, a residual activity [2] of 100% and a residual activity [3] of 108%. For the same compound, the residual activity [4] was 102%, the residual activity [5] was 59.5% and the residual activity [6] was 90%. The residual activity [7] was 98.6%, the residual activity [8] was 99% and the residual activity [9] was 102%. The residual activity [10] was 102%, the residual activity [11] was 90.8% and the residual activity [12] was 96.2%. For the same compound, the residual activity [13] was 3.87%, the residual activity [14] was 99.2% and the residual activity [15] was 56.8%. The residual activity [16] was 34.5%, the residual activity [17] was 98% and the residual activity [18] was 102%. It also gave a residual activity [19] of 88.1%, a residual activity [20] of 77% and a residual activity [21] of 71.1%. The residual activity [22] was 99.2%, the residual activity [23] was 40.2% and the residual activity [24] was 88.8%. The residual activity [25] was 95.7%, the residual activity [26] was 96.8% and the residual activity [27] was 91.3%. For the same compound, the residual activity [28] was 86.3%, the residual activity [29] was 89.3% and the residual activity [30] was 100%. It also gave a residual activity [31] of 97.5%, a residual activity [32] of 87.9% and a residual activity [33] of 127%. The residual activity [34] was 98.3%, the residual activity [35] was 94.9% and the residual activity [36] was 97.5%. It also gave a residual activity [37] of 83.5%, a residual activity [38] of 108% and a residual activity [39] of 65%. It also gave a residual activity [40] of 69.4% and a residual activity [41] of 104%.

Source: the kinase profiling compilation of Christmann-Franck et al. (2016)
